± gives the expanded uncertainty stated by the source.
Columns and labels:
[1] = Crystal; DTA
[2] = Molar enthalpy of transition or fusion; settings: Crystal; DSC

Triple point temperature [1]: 372 ± 0.7 K
Molar enthalpy of transition or fusion [2]: 6.93 ± 0.239 kcal/mol
SMILES: CC(C)(C)C(=O)C(Oc1ccc(Cl)cc1)n1ccnc1 (configuration not stated) [1-(4-Chlorophenoxy)-1-(imidazol-1-yl)-3,3-dimethylbutanone]

— the NIST ThermoML archive (doi:10.1016/j.jct.2014.04.011)
